# What was measured:
# opioid receptors [1] = conditions: metabolite of naltrexone; cited from earlier work
# [2] = Passive loading of naloxone and naltrexone into MLV's liposomes; format: physicochemical
# opioid receptors [3] = conditions: in vivo; cited from earlier work
# δ-receptor [4] = molecular target: T1, δ-receptor (Homo sapiens, UniProt P41143); conditions: in vitro; cited from earlier work
# μ-opioid receptor = μ-opioid receptor (Homo sapiens, UniProt P35372); conditions: cited from earlier work
# δ-receptor [5] = molecular target: T1, δ-receptor; conditions: in vitro; cited from earlier work; remark: listed apart in the source
# μ-receptor = μ-receptor (Homo sapiens, UniProt P35372); conditions: in vitro; cited from earlier work
# κ-receptor [6] = molecular target: T2, κ-receptor (Homo sapiens, UniProt P41145); conditions: in vitro; cited from earlier work
# κ-receptor [7] = molecular target: T2, κ-receptor; conditions: in vitro; cited from earlier work; remark: listed apart in the source
# Sequence of μ-opioid receptor (P35372 whole entry, species assumed): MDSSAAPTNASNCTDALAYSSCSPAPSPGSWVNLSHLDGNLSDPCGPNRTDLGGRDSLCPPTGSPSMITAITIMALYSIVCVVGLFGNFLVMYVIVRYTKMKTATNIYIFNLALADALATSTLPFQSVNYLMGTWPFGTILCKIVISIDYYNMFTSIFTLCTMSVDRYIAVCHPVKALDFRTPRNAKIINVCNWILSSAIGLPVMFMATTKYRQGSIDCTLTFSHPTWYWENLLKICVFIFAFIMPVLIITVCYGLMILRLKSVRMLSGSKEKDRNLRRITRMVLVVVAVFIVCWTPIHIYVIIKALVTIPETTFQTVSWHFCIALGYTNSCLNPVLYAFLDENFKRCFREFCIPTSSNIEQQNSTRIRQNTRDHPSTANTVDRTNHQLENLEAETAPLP
# T2 sequence (P41145 whole entry): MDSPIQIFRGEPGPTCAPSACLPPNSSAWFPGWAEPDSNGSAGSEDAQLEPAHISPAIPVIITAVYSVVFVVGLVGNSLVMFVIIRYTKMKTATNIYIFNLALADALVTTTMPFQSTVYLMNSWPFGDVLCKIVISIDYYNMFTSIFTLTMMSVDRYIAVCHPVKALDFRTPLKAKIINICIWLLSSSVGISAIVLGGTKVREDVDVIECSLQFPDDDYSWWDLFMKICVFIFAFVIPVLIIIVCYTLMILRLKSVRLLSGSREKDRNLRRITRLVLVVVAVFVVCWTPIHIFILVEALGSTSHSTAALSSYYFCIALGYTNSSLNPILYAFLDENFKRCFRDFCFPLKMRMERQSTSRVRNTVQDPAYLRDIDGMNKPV
# T1 sequence (P41143 whole entry): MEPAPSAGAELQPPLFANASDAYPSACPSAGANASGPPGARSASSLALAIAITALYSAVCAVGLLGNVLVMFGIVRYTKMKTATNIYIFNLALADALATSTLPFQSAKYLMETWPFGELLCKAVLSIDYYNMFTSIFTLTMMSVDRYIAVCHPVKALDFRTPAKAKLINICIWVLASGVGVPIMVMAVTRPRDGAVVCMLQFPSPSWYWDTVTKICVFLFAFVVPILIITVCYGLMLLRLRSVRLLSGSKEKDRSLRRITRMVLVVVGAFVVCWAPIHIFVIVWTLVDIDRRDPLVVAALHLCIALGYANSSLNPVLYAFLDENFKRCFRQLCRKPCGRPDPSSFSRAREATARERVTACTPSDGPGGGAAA
# Sequence of μ-receptor (P35372 whole entry, species assumed): as the sequence (P35372 whole entry, species assumed) above
smiles,measurement,setting,value
Oc1ccc2c3c1O[C@H]1[C@H](O)CC[C@@]4(O)[C@@H](C2)N(CC2CC2)CC[C@]314 [60-naltrexol],antagonist activity,opioid receptors [1],active antagonist
"O=C1CC[C@@]2(O)[C@H]3Cc4ccc(O)c5c4[C@@]2(CCN3CC2CC2)[C@H]1O5 [Naltrexone, 17-(cyclopropylmethyl)-4,5α-epoxy-3,14-dihydroxymorphinan-6-one]",Liposomal naltrexone conc.,[2],8.1 mg/mL
same,duration of effect,opioid receptors [3],last about a day
"C=CCN1CC[C@]23c4c5ccc(O)c4O[C@H]2C(=O)CC[C@@]3(O)[C@H]1C5 [Naloxone, 17-allyl-4,5α-epoxy-3,14-dihydroxymorphinan-6-one]",Liposomal naloxone conc.,[2],6.8 mg/mL
"NC(=O)c1ccc2c(c1O)[C@]13CCN(CC4CC4)[C@H](C2)[C@]1(O)CCC(=O)C3 [Samidorphan, 3-carboxamido-4-hydroxynaltrexone]",affinity at δ-receptor,δ-receptor [4],high affinity
same,greater affinity at mu-opioid receptor compared to naltrexone,μ-opioid receptor,five
same,affinity at μ-receptor,μ-opioid receptor; in vitro,high affinity
same,action at δ-receptor,δ-receptor [5],partial agonist
same,action at μ-receptor,μ-receptor,antagonist
same,affinity at κ-receptor,κ-receptor [6],high affinity
same,action at κ-receptor,κ-receptor [7],partial agonist
